Test results taken from the supplement of paper PMC11451515.

System: SEM cells
Assay: cell viability relative to DMSO control; higher = less cytotoxic
Settings: 48 h
Summary of the method: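 NOMO1 or SEM cells were plated at 500 cells/well and P12-Ichikawa cells at 1000 cells/well in 1536-well plates (5 μl), after each leukemia line had been adapted for at least four passages in each medium. Pin dosing delivered library compounds in DMSO at 11 threefold concentrations, 47 μM to 0.79 nM. CellTiter-Glo One luminescence was read after 48 h at 37°C. Viability is reported as a per-plate percentage of DMSO wells, with cell-free wells as background.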

[1] = HPLM + 10% dialyzed FBS, 0.000781 µM
[2] = HPLM + 10% dialyzed FBS, 0.00234 µM
[3] = HPLM + 10% dialyzed FBS, 0.00702 µM
[4] = HPLM + 10% dialyzed FBS, 0.0211 µM
[5] = HPLM + 10% dialyzed FBS, 0.0632 µM
[6] = HPLM + 10% dialyzed FBS, 0.19 µM
[7] = HPLM + 10% dialyzed FBS, 0.569 µM
[8] = HPLM + 10% dialyzed FBS, 1.71 µM
[9] = HPLM + 10% dialyzed FBS, 5.12 µM
[10] = HPLM + 10% dialyzed FBS, 15.4 µM
[11] = HPLM + 10% dialyzed FBS, 46.1 µM
[12] = RPMI 5 mM glucose + 10% FBS, 0.000781 µM
[13] = RPMI 5 mM glucose + 10% FBS, 0.00234 µM
[14] = RPMI 5 mM glucose + 10% FBS, 0.00702 µM
[15] = RPMI 5 mM glucose + 10% FBS, 0.0211 µM
[16] = RPMI 5 mM glucose + 10% FBS, 0.0632 µM
[17] = RPMI 5 mM glucose + 10% FBS, 0.19 µM
[18] = RPMI 5 mM glucose + 10% FBS, 0.569 µM
[19] = RPMI 5 mM glucose + 10% FBS, 1.71 µM
[20] = RPMI 5 mM glucose + 10% FBS, 5.12 µM
[21] = RPMI 5 mM glucose + 10% FBS, 15.4 µM
[22] = RPMI 5 mM glucose + 10% FBS, 46.1 µM
[23] = RPMI 5 mM glucose + 10% dialyzed FBS, 0.000781 µM
[24] = RPMI 5 mM glucose + 10% dialyzed FBS, 0.00234 µM
[25] = RPMI 5 mM glucose + 10% dialyzed FBS, 0.00702 µM
[26] = RPMI 5 mM glucose + 10% dialyzed FBS, 0.0211 µM
[27] = RPMI 5 mM glucose + 10% dialyzed FBS, 0.0632 µM
[28] = RPMI 5 mM glucose + 10% dialyzed FBS, 0.19 µM
[29] = RPMI 5 mM glucose + 10% dialyzed FBS, 0.569 µM
[30] = RPMI 5 mM glucose + 10% dialyzed FBS, 1.71 µM
[31] = RPMI 5 mM glucose + 10% dialyzed FBS, 5.12 µM
[32] = RPMI 5 mM glucose + 10% dialyzed FBS, 15.4 µM
[33] = RPMI 5 mM glucose + 10% dialyzed FBS, 46.1 µM

Row | Structure (SMILES) | cell viability [1] [%] | cell viability [2] [%] | cell viability [3] [%] | cell viability [4] [%] | cell viability [5] [%] | cell viability [6] [%] | cell viability [7] [%] | cell viability [8] [%] | cell viability [9] [%] | cell viability [10] [%] | cell viability [11] [%] | cell viability [12] [%] | cell viability [13] [%] | cell viability [14] [%] | cell viability [15] [%] | cell viability [16] [%] | cell viability [17] [%] | cell viability [18] [%] | cell viability [19] [%] | cell viability [20] [%] | cell viability [21] [%] | cell viability [22] [%] | cell viability [23] [%] | cell viability [24] [%] | cell viability [25] [%] | cell viability [26] [%] | cell viability [27] [%] | cell viability [28] [%] | cell viability [29] [%] | cell viability [30] [%] | cell viability [31] [%] | cell viability [32] [%] | cell viability [33] [%]
1 | NC/1=N/C(=O)N(C[C@@H](CO)OC[P](O)(O)=O)/C=C1 | 115 | 130 | 120 | 126 | 139 | 126 | 120 | 125 | 106 | 105 | 94.6 | 106 | 103 | 117 | 99.2 | 111 | 113 | 98.2 | 95.2 | 100 | 97.7 | 69.7 | 136 | 111 | 115 | 122 | 131 | 106 | 128 | 123 | 101 | 111 | 100
2 | O=C(C1CC1)N1CC[C@@H](Cn2c(-c3ccc(-c4ccc5occc5c4)cc3)nc3cnccc32)C1 | 94.6 | 91.1 | 106 | 108 | 98.8 | 107 | 115 | 108 | 104 | 121 | 102 | 73.9 | 89.5 | 99.9 | 97.9 | 108 | 101 | 99.9 | 110 | 101 | 103 | 85.9 | 113 | 102 | 101 | 111 | 112 | 119 | 129 | 121 | 108 | 114 | 108
3 | CCc1cccc2c3c([nH]c12)C(CC)(CC(=O)O)OCC3 (centres undefined) | 105 | 90.9 | 105 | 112 | 101 | 120 | 114 | 108 | 103 | 47.2 | 103 | 83.6 | 37.6 | 85.4 | 96.2 | 98 | 87.6 | 105 | 102 | 105 | 40.7 | 91.9 | 94.2 | 93 | 102 | 107 | 112 | 103 | 102 | 110 | 105 | 34.7 | 89.4
4 | CO[C@@H]1[C@@H](OC(N)=O)[C@@H](O)[C@H](OC2=CC=C3\C(=C(NC(=O)C4=CC=C([O-])C(=C4)CC=C(C)C)/C(=O)OC3=C2C)O)OC1(C)C | 106 | 110 | 123 | 97.7 | 118 | 116 | 102 | 101 | 121 | 98.7 | 117 | – | – | – | – | – | – | – | – | – | – | – | 105 | 106 | 109 | 114 | 111 | 115 | 109 | 101 | 107 | 81.5 | 110
5 | CN(C)/[N+]([O-])=N/Oc1cc(ON[N+](=O)N2CCN(C(=O)c3cc(Cc4n[nH]c(=O)c5ccccc45)ccc3F)CC2)c([N+](=O)[O-])cc1[N+](=O)[O-] | 94 | 97.2 | 103 | 97.7 | 100 | 58.3 | 101 | 116 | 109 | 110 | 105 | 99 | 101 | 93.1 | 93.5 | 100 | 55.9 | 98.2 | 109 | 111 | 113 | 103 | 89.9 | 79.2 | 112 | 103 | 109 | 40.1 | 137 | 122 | 106 | 100 | 91.8
6 | O=[N+]([O-])c1ccc(Nc2ccccc2-c2ccccc2)c2nonc12 | 71.9 | 79.4 | 90.5 | 84.4 | 63.4 | 62 | 68.8 | 62.8 | 78.1 | 48.7 | 26.4 | 93.5 | 91.7 | 100 | 102 | 77.6 | 52.2 | 83.8 | 48.9 | 61.6 | 32.2 | 27 | 72.6 | 70.5 | 80.5 | 90.9 | 58.8 | 62.8 | 64.8 | 30.9 | 54.4 | 42.3 | 26.1
7 | COC/1=C/[C@@H]2[C@@H]3CC4=C(C(=C(OC)C=C4)O)[C@]2(CCN3C)CC1=O | 116 | 121 | 130 | 122 | 133 | 139 | 135 | 119 | 128 | 115 | 129 | – | – | – | – | – | – | – | – | – | – | – | 106 | 128 | 121 | 116 | 135 | 139 | 146 | 127 | 122 | 137 | 125
8 | C=CC(=O)Nc1cccc(Oc2nc(Nc3ccc(N4CCN(C)CC4)cc3OC)ncc2Cl)c1 | 58.4 | 72.7 | 56.4 | 65.8 | 74 | 81.1 | 72.3 | 68.5 | 33.2 | 48 | 13.3 | 80.4 | 89.2 | 60.5 | 88.2 | 94.2 | 91.2 | 56.4 | 65.3 | 22.6 | 41.6 | 5.05 | 62.5 | 69.8 | 52.6 | 58.2 | 70.8 | 72.9 | 64.1 | 42.3 | 24.1 | 41.8 | 18
9 | C[C@H]1[C@H](O)O[C@@H]2O[C@@]3(C)CC[C@H]4[C@H](C)CC[C@@H]1[C@@]24OO3 | 86.7 | 82.3 | 90.2 | 92.7 | 95.8 | 109 | 105 | 98.3 | 41.5 | 22.4 | 17.9 | 82.3 | 93 | 90.8 | 89.3 | 96.9 | 94.8 | 93.1 | 74.5 | 47.1 | 10.1 | 5.91 | 74.7 | 82.1 | 89 | 82.8 | 76 | 111 | 89.8 | 87.1 | 17.6 | 8.87 | 8.68
10 | O=C(C[C@@H]1C/C=C\CCC(=O)O[C@H](c2ccccc2)CNC1=O)NCc1ccc(Cl)cc1 | 77 | 109 | 46.9 | 111 | 109 | 118 | 128 | 107 | 107 | 112 | 118 | 85.7 | 102 | 11.1 | 88.8 | 95.7 | 96.3 | 101 | 102 | 98.9 | 90.9 | 94 | 83.6 | 106 | 34.3 | 121 | 116 | 128 | 122 | 104 | 107 | 103 | 102
11 | O=[S+]([O-])(CCSSCC[S+](=O)([O-])[O][Na])[O][Na] | 78.9 | 95.5 | 101 | 65.2 | 120 | 104 | 102 | 103 | 107 | 108 | 118 | 117 | 97.5 | 116 | 73.7 | 115 | 112 | 119 | 103 | 124 | 112 | 111 | 103 | 99.9 | 113 | 72.8 | 134 | 120 | 126 | 120 | 121 | 126 | 139
12 | COC1=CC(=CC=C1)C2=CC=C(NC(=O)/C3=C(/CCC3)C(O)=O)C(=C2)F | 103 | 109 | 116 | 108 | 122 | 108 | 119 | 107 | 104 | 104 | 76.6 | 92.5 | 108 | 112 | 116 | 127 | 120 | 121 | 118 | 107 | 111 | 42.8 | 95.6 | 115 | 109 | 113 | 103 | 109 | 105 | 111 | 111 | 78.2 | 30.9
13 | C[C@]12CC[C@@H]3c4ccc(O)cc4CC[C@H]3[C@@H]1CC[C@@H]2O | 109 | 110 | 121 | 115 | 98.9 | 119 | 113 | 97.4 | 95.7 | 85.2 | 23.4 | 124 | 124 | 129 | 142 | 125 | 123 | 118 | 114 | 113 | 84 | 21.1 | 127 | 118 | 124 | 144 | 116 | 121 | 114 | 115 | 105 | 82 | 16.5
14 | CCc1ccc(C(=O)Nc2cc(CN3CCN(C)CC3)cc(C(F)(F)F)c2)cc1C#Cc1cnc2ccnn2c1 | 121 | 113 | 122 | 126 | 116 | 128 | 77.4 | 122 | 109 | 73.7 | 74.4 | 110 | 118 | 114 | 109 | 111 | 106 | 98.3 | 116 | 95.9 | 94.1 | 71.9 | – | – | – | – | – | – | – | – | – | – | –
